# Results: patent US8871971B2, “Protection of normal cells” (priority 2002, dated 2014)
# Experiments:
# [1] = test system: Sulindac reductase activity in calf liver; assay: Sulindac reductase activity in calf liver fractions; type: biochemical, bovine; conditions: mitochondria, S-100 and S-100 pellet of liver; preliminary evidence
# Description: Mammalian enzymes. […] To prepare mitochondria, the S10 pellets were suspended in 20 ml buffer A. […] The tubes were centrifuged at 24,000×g for 24 min. The pellets were resuspended in buffer A and centrifuged at 20,000×g for 15 min. The pellets (containing mitochondria) were suspended in 2 ml of buffer A. All fractions were stored at -80° C.
# Normal Lung cells [2] = assay: Viability of normal lung cells exposed to TBHP (MTS assay); type: cell-based; conditions: 500 μM for 48 hr, then TBHP 2 hr
# Description: Normal lung cells were treated with 500 μM sulindac-(R+S; near 50% each), 500 μM sulindac-R (>99% R; <1% S) or 500 μM sulindac-S (>99% S; <1% R) for 48 hr. The sulindac-R and sulindac-S samples were obtained from a racemic mixture of epimers using a chiral column analogous to the process described above. The cells were washed and then exposed to the indicated concentration of tert-Butyl Hydroperoxide (TBHP) for 2 hr. Cell viability was measured using the standard MTS assay. A background absorbance of 0.12 was subtracted from average of four replicate samples. The data are plotted as a bar graph because the concentrations are not in equal intervals. The error bars are the SEM of four replicate samples. The data are presented on three separate graphs using the untreated samples from that plate.
# [3] = test system: Membrane Msr (mem-R,S-Msr); assay: Extraction reductase assay, sulindac as substrate; type: biochemical, E. coli; conditions: for Nmoles formed: 35 μg of membrane fraction
# rat hearts = assay: Ischemia/reperfusion in Langendorff heart, LDH release; type: in vivo, rats; conditions: 0.1 mg in diet for 2 days; ischemia 45 minutes, reperfusion 2 hours
# Description: […]. […] The hearts were removed, exposed to ischemia for 45 minutes and then perfused for 2 hours (reperfusion) using a Langendorff procedure. The cellular damage was measured by assaying for the release of lactic dehydrogenase (LDH).
# HeLa cells = assay: Conversion of sulindac epimers to the sulfide in cells; type: in vitro ADME; conditions: 200 μM epimer, 4 hours, serum-free medium
# Description: (§1) After incubation, the cells are collected, rinsed and lysed with acetonitrile. The cytosolic contents are separated on a C-18 column.
# Normal Lung cells [4] = assay: as above; type: in vitro ADME; conditions: 200 μM epimer, 4 hours, serum-free medium
# Description: as §1
# Cancer Lung cells = assay: as above; type: in vitro ADME; conditions: 200 μM epimer, 4 hours, serum-free medium
# Description: as §1
# [5] = test system: Cancer Skin (skin SCC) cells; assay: as above; type: in vitro ADME; conditions: 200 μM epimer, 4 hours, serum-free medium
# Description: as §1
# Normal Cardiomyocyte = assay: as above; type: in vitro ADME; conditions: 200 μM epimer, 4 hours, serum-free medium
# Description: as §1
# MsrA [6] = biological target: T1, MsrA (Escherichia coli, UniProt P0A744); assay: Reductase assay with TLC of products; conditions: 100 nmoles substrate, 3 μg MsrA, 15 mM DTT, 2 hours 37° C.
# Description: (§2) Reductase assay and thin layer chromatography (TLC). […] Incubation was carried out for 2 hours at 37° C., at the end of which the duplicate samples were combined and dried in a speed-vacuum unit at room temperature. The residue was suspended in 50 μl of ethanol, which was then loaded onto a silica gel TLC plate. The plate was developed with butanol: acetic acid:water (60:15:25) as the solvent. The compounds were visualized by their yellow color.
# MsrB [7] = biological target: T2, MsrB (Escherichia coli, UniProt P0A746); assay: Reductase assay with TLC of products; conditions: 100 nmoles substrate, 21 μg MsrB, 15 mM DTT, 2 hours 37° C.
# Description: as §2
# PC-12 cells = assay: Viability of PC-12 cells treated with MPP+ (trypan blue exclusion); type: cell-based; conditions: for Dead cells (%) Exp 1 / Dead cells (%) Exp 2: 0.2 mM MPP+ 24 h
# MsrB [8] = biological target: T2, MsrB; assay: Extraction reductase assay, sulindac as substrate; conditions: 10 μg MsrB
# Description: (§3) Bacterial enzymes. […] The enzyme preparations had specific activities similar those reported earlier.
# Drosophila = assay: Survival of flies exposed to paraquat oxidative stress; type: in vivo; conditions: for Flies alive: 2.5 mM paraquat, 2 mM sulindac; for Survival rate: 10 mM paraquat
# Description: Paraquat is a cytotoxic compound known to form superoxide radicals intracellularly. Three different concentrations of paraquat (i.e., 2.5 mM, 5 mM and 10 mM) were tested. […] After 3 days at 25° C., flies were transferred to test vials for counting.
# MsrA1 = assay: Extraction reductase assay, sulindac as substrate; conditions: 40 μg MsrA1
# Description: as §3
# fSMsr = assay: Extraction reductase assay, sulindac as substrate; conditions: 200 μg fSMsr
# Description: as §3
# fRMsr = fRMsr (Escherichia coli, UniProt P76270); assay: Extraction reductase assay, sulindac as substrate; conditions: 290 μg fRMsr
# Description: as §3
# G93A transgenic mice = assay: G93A SOD1 transgenic mouse model of familial ALS; type: in vivo
# Description: Transgenic mice expressing a mutant form of SOD similar to that found in human ALS patients were used for this study. Transgenic male mice with a G93A human SOD1 (G1H/+) mutation (B6SJL-TgN (SOD1-G93A)1 Gur; Jackson Laboratories, ME) were used to breed with female B6SJL mice (Jackson Laboratories, ME). The F1 generations were genotyped for the G93A mutation with polymerase chain reaction (PCR) using tail DNA, and two specific primers from the SOD1 gene.
# Motor performance was assessed by Rotarod testing for each group and survival time was recorded.
# Motor function testing. Mice were trained for 2-3 days to become acquainted with the Rotarod apparatus (Columbus instruments, Columbus, Ohio). Rotarod performances were assessed in G93A mice starting at 60 days of age. The testing began with placing the mice on a rod that rotates at 12 rpms. The time period that the mice stayed on the rod before falling off was recorded as a measurement of the competence of their motor function. Three trials were performed, and the best result of the three trials was recorded representing the status of the motor performance. Mice were tested twice a week until they could no longer perform the task.
# Survival times. The initial sign of disease in G93A transgenic mice is a resting tremor that progresses to gait impairment, asymmetrical or symmetrical paralysis of the hind limbs, and ultimately complete paralysis at the end stage. Mice were sacrificed when they were unable to roll over within 20 seconds after being pushed on their side. This time point was determined to be the time of survival, at which time the mice were sacrificed.
# Light microscopic immunocytochemistry. Mice were perfused transcardially with cold 0.1M phosphate-buffered saline (PBS) for 1 minute followed by cold 4% paraformaldehyde in PBS for 10 minutes. The spinal cords were removed rapidly, blocked coronally, and post-fixed in 4% paraformaldehyde in PBS for 6 hours. Blocks were cryo-protected in 30% sucrose for 24 hours and were sectioned on a cryostat at a thickness of 35 micrometers. All protocols were conducted within NIH guidelines for animal research and were approved by the Institutional Animal Care and Use Committee (IACUC).
# Serial transverse sections (50 μm thick) were cut on a cryostat and collected for Nissl staining. Every fourth section was analyzed for neuronal volume and number using the optical fractionator and nucleator probes of the Stereo Investigator System (Microbrightfield, Colchester, Vt.). Six tissue sections of the lumbar spinal cord from each mouse were analyzed. All cells were counted from within the ventral horn below a horizontal line across the gray matter through the ventral border of the central canal. Photomicrographs were taken on a Zeiss Axiophot II microscope.
# Statistical analysis. Statistical analysis of survival was performed using Kaplan-Meier test for survival measured in postnatal days, Fisher's Test for mean age of death analysis, and Scheffe test for motor performance.
# MsrA [9] = biological target: T1, MsrA; assay: Extraction reductase assay, sulindac as substrate; conditions: 250 ng MsrA
# Description: as §3
# MsrA from E. coli = MsrA from E. coli (Escherichia coli, UniProt P0A744); assay: Reductase assay (NADPH oxidation): reduction of sulindac to sulindac sulfide by MsrA
# Description: Reductase assay. […] Incubations were performed at 37° C. for various times.
# At the end of incubation, 500 μl of 0.5 M Bis-Tris-Cl pH 5.5 and 3 ml of ethyl acetate were added. The tubes were mixed (vortexed) for 5 seconds (3 times). After separation, the organic phase was removed and another 3 ml of ethyl acetate were added. After mixing the organic phase was again removed.
# [10] = 0.1 mM sulindac 48 h pretreatment
# [11] = 0.2 mM sulindac 48 h pretreatment
# [12] = 0.5 mM sulindac 48 h pretreatment
# [13] = 0.5 mM sulindac pretreatment, 0.2 mM MPP+
# [14] = Tube 2: no MsrA, sulindac 5 μl (0.2M), thioredoxin 3 μl
# [15] = Tube 3: MsrA 1 μl (100 ng/μl), 20 min
# [16] = Tube 4: MsrA 2 μl (100 ng/μl), 20 min
# [17] = Tube 5: MsrA 4 μl (100 ng/μl), 20 min
# [18] = Tube 7: MsrA 2 μl (100 ng/μl), 10 min
# [19] = Tube 8: MsrA 2 μl (100 ng/μl), 30 min
# Chain of MsrA from E. coli (P0A744 whole entry): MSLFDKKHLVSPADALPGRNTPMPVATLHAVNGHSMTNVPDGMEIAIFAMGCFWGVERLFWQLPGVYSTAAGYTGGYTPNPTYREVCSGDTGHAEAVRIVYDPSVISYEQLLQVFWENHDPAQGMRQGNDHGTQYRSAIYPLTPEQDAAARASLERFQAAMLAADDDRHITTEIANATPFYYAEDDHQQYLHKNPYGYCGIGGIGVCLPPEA
# T1 sequence (P0A744 whole entry): as above
# T2 sequence (P0A746 whole entry): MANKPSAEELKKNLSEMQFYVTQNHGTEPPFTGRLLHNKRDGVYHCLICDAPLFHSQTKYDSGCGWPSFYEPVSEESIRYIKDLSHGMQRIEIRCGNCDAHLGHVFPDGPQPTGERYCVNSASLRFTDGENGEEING
# Chain of fRMsr (P76270 whole entry): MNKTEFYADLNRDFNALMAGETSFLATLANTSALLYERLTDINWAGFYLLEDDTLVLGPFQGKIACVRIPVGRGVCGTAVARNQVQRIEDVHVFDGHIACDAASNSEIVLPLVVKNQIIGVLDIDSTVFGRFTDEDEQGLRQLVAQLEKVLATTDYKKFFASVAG
smiles,measurement,setting,value
C[S@@+]([O-])CC[C@H](N)C(=O)O [Met-R—(O)],Effect of added excess Met(O) epimer on sulindac reductase activity,[1],only a slight effect
C[S+]([O-])CC[C@H](N)C(=O)O (stereo partly shown) [Met-S—(O)],Effect of added excess Met(O) epimer on sulindac reductase activity,[1],inhibited the activity in all three fractions
"CC1=C(CC(=O)O)c2cc(F)ccc2/C1=C\c1ccc([S@@+](C)[O-])cc1 [R-epimer, R-sulindac sulfoxide]",Protection against TBHP compared with other forms,Normal Lung cells [2],protects better as compared to sulindac-(R+S) or Sulindac-S
same,TBHP concentration up to which protection is seen,Normal Lung cells [2],340 µM
same,Nmoles formed,[3],2.41 nmol
same,Protection of hearts from ischemia/reperfusion damage (LDH release),rat hearts,protects their hearts from oxidative damage
"CC1=C(CC(=O)O)c2cc(F)ccc2/C1=C\c1ccc([S@+](C)[O-])cc1 [S-epimer, S-sulindac sulfoxide]",TBHP concentration at which error bars begin to overlap,Normal Lung cells [2],~220 µM
same,TBHP concentration up to which protection is seen,Normal Lung cells [2],~180 µM
same,Amount formed (picomoles),HeLa cells,7.9 picomoles
same,Amount formed (picomoles),Normal Lung cells [4],35 picomoles
same,Amount formed (picomoles),Cancer Lung cells,17.7 picomoles
same,Amount formed (picomoles),[5],57 picomoles
same,Amount formed (picomoles),Normal Cardiomyocyte,120.9 picomoles
CSCCC(NC(=O)CC1=C(C)/C(=C/c2ccc([S+](C)[O-])cc2)c2ccc(F)cc21)C(=O)O (stereo not shown) [SMO],Substrate for MsrA (reduction products on TLC),MsrA [6],substrate for MsrA
same,Substrate for MsrB (reduction products on TLC),MsrB [7],substrate for MsrB
CC1=C(CC(=O)O)c2cc(F)ccc2/C1=C\c1ccc([S+](C)[O-])cc1 (stereo not shown) [Sulindac],Dead cells (%) Exp 1,PC-12 cells; [10],67%
same,Dead cells (%) Exp 2,PC-12 cells; [10],74%
same,Dead cells (%) Exp 1,PC-12 cells; [11],55%
same,Dead cells (%) Exp 2,PC-12 cells; [11],39%
same,Dead cells (%) Exp 1,PC-12 cells; [12],34%
same,Dead cells (%) Exp 2,PC-12 cells; [12],35%
same,Cell death,PC-12 cells; [13],approximately 35%
same,Cell survival,PC-12 cells; [13],~65%
same,Effect on viability of the cells,PC-12 cells; in the absence of MPP+,no effect on the viability of the cells
same,Units of activity,MsrB [8],0 nmoles of SS formed per hour
same,Flies alive,Drosophila; 3 day,approximately 95%
same,Flies alive,Drosophila; 6 day,~60%
same,Survival rate,Drosophila; after 2 days,~85%
same,Survival rate,Drosophila; after 3 days,~57%
same,TBHP concentration after which protection declined rapidly,Normal Lung cells [2],80 to 100 µM
same,Nmoles formed,[3],2.75 nmol
same,Units of activity,[3]; 50 μg membrane fraction,5.1 nmoles of SS formed per hour
same,Units of activity,MsrA1,<0.9 nmoles of SS formed per hour
same,Units of activity,fSMsr,0 nmoles of SS formed per hour
same,Units of activity,fRMsr,0 nmoles of SS formed per hour
same,Motor performance (Rotarod performance times),G93A transgenic mice; 300 PPM and 450 PPM groups vs G93A controls,significant improvement in motor performance
same,Mean survival time,G93A transgenic mice; 300 PPM in food from postnatal day 30,135.17 ± 11.4 days
same,Increase in survival over control mice,G93A transgenic mice; 450 PPM in food,7%
same,Average survival,G93A transgenic mice; 450 PPM in food from postnatal day 30,131.17 ± 10.9 days
same,"Scheffe for motor performance, Mean Diff.",G93A transgenic mice; Controls vs Sulindac 300 PPM,−59.443
same,"Scheffe for motor performance, Mean Diff.",G93A transgenic mice; Controls vs Sulindac 450 PPM,−73.119
same,"Scheffe for motor performance, Mean Diff.",G93A transgenic mice; Sulindac 300 PPM vs Sulindac 450 PPM,−13.676
same,Counts of motor neurons in spinal cord sections,G93A transgenic mice; vs G93A controls,significantly higher counts of motor neurons
same,Units of activity,MsrA [9],11.3 nmoles of SS formed per hour
same,Substrate for MsrA (reduction products on TLC),MsrA [6],substrate for MsrA
same,OD340,MsrA from E. coli; [14],0.660
same,Sulindac sulfide,MsrA from E. coli; [14],0 nmol
same,OD340,MsrA from E. coli; [15],0.622
same,Sulindac sulfide,MsrA from E. coli; [15],5.8 nmol
same,Δ OD340,MsrA from E. coli; [15],0.038
same,OD340,MsrA from E. coli; [16],0.586
same,Sulindac sulfide,MsrA from E. coli; [16],11.2 nmol
same,Δ OD340,MsrA from E. coli; [16],0.074
same,OD340,MsrA from E. coli; [17],0.522
same,Sulindac sulfide,MsrA from E. coli; [17],21.0 nmol
same,Δ OD340,MsrA from E. coli; [17],0.138
same,OD340,"MsrA from E. coli; Tube 6: MsrA 2 μl, no thioredoxin, 20 min",0.684
same,OD340,MsrA from E. coli; [18],0.626
same,Sulindac sulfide,MsrA from E. coli; [18],5.2 nmol
same,Δ OD340,MsrA from E. coli; [18],0.034
same,OD340,MsrA from E. coli; [19],0.531
same,Sulindac sulfide,MsrA from E. coli; [19],19.4 nmol
same,Δ OD340,MsrA from E. coli; [19],0.129
same,Substrate for MsrB (reduction products on TLC),MsrB [7],not a substrate for MsrB
